Tests used:
MPTP-treated marmosets = details: in vivo; cited from earlier work
PD patients with LID = test: Parkinson's Disease Questionnaire (PDQ39); type: in vivo, human; details: for PDQ39, mean change from baseline: per-protocol set
Source text: The PDQ39-item patient reported outcome of health status and quality of life and is the most frequently used disease-specific health status measure for PD. The questionnaire assesses how often people affected by PD experience difficulties across 8 dimensions of daily living. The standard PDQ39 assesses quality of life over the previous month. In this study the initial time period assessed at the Baseline Visit would be the previous month, with subsequent assessments for the intervening period since the last clinic visit (about 3 weeks). The 8 quality of life dimensions covered in the questionnaire are: • gg. Mobility (10 items #1-10) • hh. ADL (6 items #11-16) • ii. Emotional Well Being (6 items #17-22) • jj. Stigma (4 items #23-26) • kk. Social Support (3 items #27-29) • ll. Cognition (4 items #30-33) • mm. Communications (3 items #34-36) • nn. Bodily Discomfort (3 items #37-39) Individual items are rated by the patient on a scale of […]. Dimension scores are calculated on a scale of 0 to 100. The total score and individual dimension scores would be assessed for change from baseline.

[1] = test system: L-DOPA-induced dyskinesia in rat; details: 2-week treatment period; cited from earlier work

For `Cc1ccc(CNCC2(F)CCN(C(=O)c3ccc(F)c(Cl)c3)CC2)nc1` [NLX-112, (3-chloro-4-fluoro-phenyl)-[4-fluoro-4-{[(5-methyl-pyridin-2-ylmethyl)-amino]-methyl}piperidin-1-yl]methanone], the disability scores (MPTP-treated marmosets) is listed as “reduces disability scores”, the “quality of life (PDQ39 score)” value (PD patients with LID; Days 28 or 42) is listed as “no consistent statistically significant effect” and the “PDQ39, mean” value (PD patients with LID; per-protocol set (n = 15), Baseline) is listed as 18.7. For the same compound, the “PDQ39, mean change from baseline” value (PD patients with LID; Δ D 28 (end of up-titration)) was −1.5, the “PDQ39, mean change from baseline” value (PD patients with LID; Δ D 42 (end of stable dosing)) was −0.6 and the “antidyskinetic efficacy against L-DOPA-induced dyskinesia” value [1] was “did maintain its antidyskinetic efficacy”.
